According to patent publication US10570178B2, “Selective delivery molecules and methods of use” (Avelas Biosciences, Inc., priority 2011, dated 2020):
Numbered stars: 1 amine (or outer) side, 2 acyl side, 3 side chain; on linkers, the order of the positions; unused ones are H or OH. Square brackets hold non-standard residues; d marks the D form. Ends that are not written are not given here. Cys(Me) = S-methyl-cysteine, CSC[C@H](N[*:1])C(=O)[*:2]; Phe(4-Ac) = CC(=O)c1ccc(C[C@H](N)C(=O)O)cc1; AEA = NCCOCC(=O)O

Experiments:
[1] = tested on: HT-1080 tumor homogenates; assay: Fluorogenic response from tumor homogenates (gel electrophoresis); format: biochemical, mouse
Experimental: FIG. 4 exemplifies fluorescence enhancement of selective delivery molecule SDM-10 upon cleavage by tumor homogenates. Selective delivery molecule 10 (SDM-10) was cleaved with HT-1080 tumor homogenates. 1 nM MMP-9 or 10 uL tumor tissue homogenates (TH2 and TH3) were mixed with 1 uM […] in 100 uL buffer for 24 h at 37° C. GM6001 is a general broad spectrum inhibitor of MMPs. […] Uncleaved SDM-10 is nonfluorescent due to efficient quenching (second column from left).
HT1080 cells (Cat. # CCL-121; American Type Culture Collection, Va., USA) were grown under exponential growth conditions in humidified atmosphere of 5% CO2 in air at 37° C. until reaching 80-100% confluence before harvesting for mouse implantation. Each nude mouse was hand restrained and injected with 2×10^6 HT-1080 cells into the mammary fat pad using a 25-G needle. HT-1080 tumors were harvested when they had reached 100-200 mm^3 in size (typically 1-2 weeks post-tumor cells implantation).
HT-1080 tumors were homogenized using ultrasonic disruption. 1 nM MMP-9 or 10 μl, tumor tissue homogenates (TH2 and TH3) were mixed with 1 μM SDM-10 in 100 μL buffer for 24 h at 37° C. Selective delivery molecule 6 was used as a fluorescent control of similar size to intact SDM-10. The samples were loaded on a polyacrylamide gel and separated using electrophoresis. […] GM6001 is a general broad spectrum inhibitor of MMPs.

[2] = tested on: Murine 4T1 tumor model, metastatic cervical lymph nodes; assay: In vivo detection of cancer metastases to lymph node, emission ratio contrast; parameters: species or system mouse; conditions: metastatic vs non-metastatic lymph nodes, peritumoral administration
[3] = tested on: HT-1080 xenograft model; assay: In vivo imaging assay for tumor contrast; parameters: species or system mouse
Experimental: HT-1080 xenograft model was generated as described in Example 14 and used to evaluate the ability of molecules to provide in vivo tumor fluorescence contrast compared to surrounding tissue. Fluorescent conjugates were tested in HT-1080 tumor-bearing mice once the tumors had reached 100-200 mm^3 in size (typically 1-2 weeks post-tumor cells implantation). Conscious HT-1080 tumor-bearing mice were restrained using a rotating tail injector (Cat. # RTI; Braintree Scientific, MA, USA) and dosed intravenously (tail vein) with the test compound at between 0.1 and 5 nanomoles per mouse in 100 uL saline solution. In preparation for imaging, mice were lightly anesthetized with a mixture of ketamine/xylazine (Cat. # K-113; Sigma, Aldrich, Mo., USA) given intraperitoneally (1 μL/gram body weight) to minimize movement.
Serial whole-body imaging (tumor included) was done using a whole-animal fluorescent visualization imaging system or Olympus stereo fluorescent microscope. The mice were positioned on their backs and imaging was performed from the top to image the ventral side of the animal. […] Contrast was calculated using the following equation: Contrast=(Fluorescence intensity of tumor−Fluorescence intensity of contralateral chest tissue)/Intensity of contralateral chest tissue).
Contrast greater than 0.4 in the whole animal is easily detected by eye in the whole animal image and is good contrast. […]

[4] = molecular target: T1, matrix metalloproteinase-2 (MMP-2) (Homo sapiens, UniProt P08253); assay: Enzyme dependent fluorescence enhancement and color change: cleavage of FRET SDM by MMP-2; format: biochemical; conditions: 1 μM SDM
T1 sequence (P08253 110-660): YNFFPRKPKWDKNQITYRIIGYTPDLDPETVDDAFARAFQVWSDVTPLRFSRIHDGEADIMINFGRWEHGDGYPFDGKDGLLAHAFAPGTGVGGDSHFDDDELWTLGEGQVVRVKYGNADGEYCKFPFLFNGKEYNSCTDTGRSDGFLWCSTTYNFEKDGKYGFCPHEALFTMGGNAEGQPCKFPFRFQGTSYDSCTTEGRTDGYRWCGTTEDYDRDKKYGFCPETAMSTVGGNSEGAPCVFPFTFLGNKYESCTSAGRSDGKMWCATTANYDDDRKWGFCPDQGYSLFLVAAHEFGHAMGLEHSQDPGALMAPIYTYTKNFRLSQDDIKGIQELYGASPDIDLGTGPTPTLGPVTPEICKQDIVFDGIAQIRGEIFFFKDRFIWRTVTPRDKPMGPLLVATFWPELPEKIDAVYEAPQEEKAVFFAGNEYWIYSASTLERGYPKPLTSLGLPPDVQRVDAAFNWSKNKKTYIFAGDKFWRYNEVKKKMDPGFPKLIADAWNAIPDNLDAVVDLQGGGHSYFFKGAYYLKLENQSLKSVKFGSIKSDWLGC
Experimental: FIG. 2 exemplifies ratiometric fluorescence changes of selective delivery molecules. In this figure, SDM-9 was cleaved with 1 nM MMP-2 enzyme. The increase of donor (left panel) and decrease in acceptor (right panel) fluorescence is indicative of decreased FRET after peptide cleavage.
Selective delivery molecule 9 was dissolved in TCNB buffer (50 mM Tris, pH 7.5, with 10 mM calcium chloride, 150 mM sodium chloride, and 0.05% BRIJ 35) at room temperature at 1 μM. Fluorescence spectra were recorded on F-2500 fluorescence spectrometer. The Cy5 fluorescence donor was excited using 625 nm light and the emission was scanned from 660 to 800 nm. Peptide cleavage was initiated with addition of matrix metalloproteinase-2 (MMP-2) at a final concentration of 1 nM. The cleavage reaction was complete within 2 hour and the fluorescence spectra indicated FRET disruption and a large 8-fold increase the Cy5 donor emission and 2-fold decrease in the Cy7 emission. The actual intrinsic fluorescence decrease of Cy7 is larger however it is masked by the Cy5 long wavelength shoulder.

[5] = molecular target: MMP-9 (Homo sapiens, UniProt P14780); assay: Enzyme dependent fluorescence enhancement: cleavage of quenched SDM by MMP-9; format: biochemical; conditions: 1 μM SDM
MMP-9, sequence (P14780 94-707): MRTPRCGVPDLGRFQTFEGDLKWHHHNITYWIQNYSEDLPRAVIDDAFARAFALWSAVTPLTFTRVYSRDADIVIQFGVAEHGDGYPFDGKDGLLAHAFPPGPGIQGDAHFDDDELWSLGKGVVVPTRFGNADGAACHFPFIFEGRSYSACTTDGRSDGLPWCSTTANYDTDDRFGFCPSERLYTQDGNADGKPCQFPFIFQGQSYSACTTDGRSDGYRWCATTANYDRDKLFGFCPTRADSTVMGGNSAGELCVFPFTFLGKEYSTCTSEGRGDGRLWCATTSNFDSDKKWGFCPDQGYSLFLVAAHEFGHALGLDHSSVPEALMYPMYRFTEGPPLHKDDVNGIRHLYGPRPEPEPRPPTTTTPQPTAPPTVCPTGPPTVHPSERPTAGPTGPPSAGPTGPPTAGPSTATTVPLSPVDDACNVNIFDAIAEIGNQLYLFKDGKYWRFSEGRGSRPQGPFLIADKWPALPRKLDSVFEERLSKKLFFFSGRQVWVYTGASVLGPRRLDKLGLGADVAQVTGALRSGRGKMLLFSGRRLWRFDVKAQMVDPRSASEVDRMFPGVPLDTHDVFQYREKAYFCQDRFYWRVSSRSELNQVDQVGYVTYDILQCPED
Experimental: FIG. 3 exemplifies fluorescence enhancement of selective delivery molecules after protease cleavage. SDM-10 was cleaved with 1 nM MMP-9 enzyme in buffered saline. The Cy5 fluorescence increases >100 fold after peptide cleavage because the quencher dyes is no longer intramolecularly attached to Cy5 and it can no longer efficiently quench Cy5.
Selective delivery molecule 10 was dissolved in TCNB buffer (pH 7.5) at room temperature at 1 μM. Fluorescence spectra were recorded on F-2500 fluorescence spectrometer. Excitation of the Cy5 fluorescence donor was excited at 625 nm and the emission was measured at 669 nm. Peptide cleavage was initiated with addition of MMP-9 at a final concentration of 1 nM. The cleavage reaction was complete within 2 hour and the fluorescence was enhanced >100-fold upon protease cleavage, FIG. 3.

[6] = 1 nM MMP-2, TCNB buffer pH 7.5, excitation 625 nm

CNC(=O)[C@H](Cc1c[nH]c2ccccc12)NC(=O)[C@@H](CC(=O)NO)CC(C)C [GM6001, reference compound]
effect on tumor homogenate cleavage of SDM-10 ([1]; MMP inhibitor added to HT-1080 homogenate with SDM-10): inhibits cleavage

SDM-9: prepared analogously to SDM-25 from peptide P-3; Cy5 donor and Cy7 FRET acceptor ([dE][dE][dE][dE][dE][Phe(4-Ac)][AEA]PLG[Cys(Me)]AG[dR][dR][dR][dR][dR][dR][dR][dR][dC]-NH2; not fully specified (some residues, N-terminus))
Peritumor Maximum Contrast [2]: Low (Low <20%) | Time to maximum contrast ([3]; HT-1080 xenograft, IV dosing): Fast (4 < fast < 12) | Maximum Contrast ([3]; tumor vs contralateral chest tissue fluorescence, IV 0.1-5 nanomoles per mouse, imaged 1-24 hours after injection): High (≥0.9 = high) | decrease in Cy7 emission after cleavage [4, 6]: 2 fold | increase in Cy5 donor emission after cleavage [4, 6]: 8 fold | time to complete cleavage reaction ([4]; 1 nM MMP-2, room temperature): ≤ 2 h

SDM-10: prepared analogously to SDM-25 from peptide P-3; Cy5 fluorophore with dye quencher ([dE][dE][dE][dE][dE][Phe(4-Ac)][AEA]PLG[Cys(Me)]AG[dR][dR][dR][dR][dR][dR][dR][dR][dC]-NH2; numbers in words are those of the source; also: Cy5 fluorophore, quencher dye and mPEG carrier attached, sites not given here)
Cy5 fluorescence enhancement upon protease cleavage ([5]; 1 nM MMP-9, excitation 625 nm, emission 669 nm): > 100 fold | time to complete cleavage reaction ([5]; 1 nM MMP-9, room temperature): ≤ 2 h | cleavage by HT-1080 tumor homogenates ([1]; 1 μM SDM, 10 μL homogenate in 100 μL buffer, 24 h, 37° C.): cleaved and becomes highly fluorescent | fluorescence of intact, uncleaved form on gel ([1]; polyacrylamide gel): essentially non-fluorescent
